This assay relates to short-term antigen-specific T cell lines generated from PBMCs. Kind of assay: Interferon-γ ELISpot assay on short-term T cell lines. The assay is classed as cell-based, human. Also noted: key: +: ELISPOT: Immungenicity of the peptide shown by IFN-gamma ELISPOT analysis; * Highlights data from published resources; +*: * Highlights data from published resources.

From patent publication US20260240975A1, “VALIDATED HPV16-DERIVED S[…]” (Deutsches Krebsforschungszentrum Stiftung des öffentlichen …, priority 2023, published 2026) come the findings set out here.

“8 (SKISEYRHYCY; Human papillomavirus 16) [compound 8]”: where the note is “HLA restriction A01”, the ELISpot result is listed as “+”.

For the substance “9 (SEYRHYCYSLY; Human papillomavirus 16) [compound 9]”, the ELISpot entry runs as follows: (HLA restriction A01) “+”; (HLA restriction B15) 1.

Consider “10 (ETTDLYCY; Human papillomavirus 16) [compound 10]”, for which the ELISpot entry (HLA restriction A01) is on record as “+”.

As for “28 (KLPQLCTELQT; Human papillomavirus 16) [compound 28]”, under “HLA restriction A02”, the ELISpot entry is listed as “+”.

Take “29 (ELQTTIHDI; Human papillomavirus 16) [compound 29]”: for the setting “HLA restriction A02”, the ELISpot entry is “+”.

As for “32 (TLHEYMLDLQP; Human papillomavirus 16) [compound 32]”, the ELISpot result (HLA restriction A02) is reported as “+”.

“35 (IILECVYCK; Human papillomavirus 16) [compound 35]”: the ELISpot entry (HLA restriction A11) is recorded as “+”.

Consider “36 (HLDKKQRFH; Human papillomavirus 16) [compound 36]”, for which the ELISpot entry (HLA restriction A03) was “+”.

For the substance “47 (MFQDPQERPRK; Human papillomavirus 16) [compound 47]”, under “HLA restriction A03”, the ELISpot entry is “+”.

As to “48 (YAVCDKCLKFY; Human papillomavirus 16) [compound 48]”, the ELISpot result (HLA restriction A11) was “+”.

In the case of “49 (AVCDKCLK; Human papillomavirus 16) [compound 49]”, for the setting “HLA restriction A03”, the ELISpot result is listed as “+”.

For “50 (KCLKFYSKI; Human papillomavirus 16) [compound 50]”, the ELISpot entry (HLA restriction A03) is on record as “+”.

Turning to “51 (KFYSKISEY; Human papillomavirus 16) [compound 51]”, the ELISpot result is listed as “+” (HLA restriction A03) and “+” (HLA restriction A24).

“52 (KFYSKISEYR; Human papillomavirus 16) [compound 52]”: the ELISpot result (HLA restriction A03) is listed as “+”.

Turning to “54 (TTLEQQYNK; Human papillomavirus 16) [compound 54]”, the ELISpot result (HLA restriction A03) is reported as “+”.

Consider “56 (LIRCINCQK; Human papillomavirus 16) [compound 56]”, for which the ELISpot entry (HLA restriction A03) is “+”.

In the case of “57 (RCINCQKPLCP; Human papillomavirus 16) [compound 57]”, the ELISpot result (HLA restriction A03) is “+”.

As to “58 (KQRFHNIRGR; Human papillomavirus 16) [compound 58]”, the ELISpot result (HLA restriction A03) is listed as “+”.

For “59 (LGIVCPICSQK; Human papillomavirus 16) [compound 59]”, the ELISpot entry (HLA restriction A11) was “+”.

“63 (PYAVCDKCLKF; Human papillomavirus 16) [compound 63]”: the ELISpot entry (HLA restriction A24) is on record as “+”.

For the substance “72 (YSLYGTTL; Human papillomavirus 16) [compound 72]”, the ELISpot entry (HLA restriction A24) is on record as “+”.

In the case of “73 (HLDKKQRFHNI; Human papillomavirus 16) [compound 73]”, for the setting “HLA restriction A24”, the ELISpot result was “+”.

In the case of “74 (DKKQRFHN; Human papillomavirus 16) [compound 74]”, the ELISpot entry (HLA restriction A24) is on record as “+”.

With “75 (AHYNIVTF; Human papillomavirus 16) [compound 75]”, the ELISpot entry (HLA restriction A24) was “+”.

Turning to “82 (RPRKLPQLCT; Human papillomavirus 16) [compound 82]”, the ELISpot result (HLA restriction B07) is given as “+”.

With “84 (RCMSCCRSSR; Human papillomavirus 16) [compound 84]”, the ELISpot entry (HLA restriction B07) is given as “+”.

For “89 (QQLLRREVY; Human papillomavirus 16) [compound 89]”, the ELISpot result (HLA restriction B15) is “+”.

As for “93 (FAFRDLCIVY; Human papillomavirus 16) [compound 93]”, the ELISpot result (HLA restriction B15) was “+”.

Turning to “94 (LCIVYRDGNPY; Human papillomavirus 16) [compound 94]”, the ELISpot result (HLA restriction B15) is reported as “+”.

In the case of “96 (LLRREVYDFAF; Human papillomavirus 16) [compound 96]”, the ELISpot result (HLA restriction B15) is given as “+”.

“97 (LRREVYDFAF; Human papillomavirus 16) [compound 97]”: the ELISpot result (HLA restriction B15) is recorded as “+”.

“98 (IVYRDGNPYAV; Human papillomavirus 16) [compound 98]”: the ELISpot result (HLA restriction B15) is “+”.

On to “99 (AVCDKCLKF; Human papillomavirus 16) [compound 99]”, for which, under “HLA restriction B15”, the ELISpot result is on record as “+”.
